Test results as given in patent publication US20230023935A1, “USE OF MASITINIB FOR THE TREATMENT OF EOSINOPHILIC ASTHMA” (AB SCIENCE, priority 2019, published 2023).

System: subjects with severe persistent asthma treated with oral corticosteroids
Assay: Phase 3 study AB07015: masitinib 6 mg/kg/day versus placebo, severe asthma exacerbations by baseline blood eosinophil cohort
Assay type: in vivo, human
Conditions: for Rate ratio (Estimate) for asthma exacerbations: Poisson regression
Protocol: A prospective, multicenter, randomized, double-blind, placebo-controlled, 2-parallel groups, phase 3 study was carried out to compare the efficacy and the safety of masitinib at 6 mg/kg/day versus placebo in the treatment of subjects with severe persistent asthma treated with oral corticosteroids. Said clinical trial (reference AB07015) is registered under the EudraCT number: 2010-020803-63 and under the ClinicalTrials.gov identifier: NCT01449162. Patients were randomized in two groups with a masitinib to placebo randomization ratio of 2:1, respectively: • Group 1: patients receiving masitinib at 6 mg/kg/day; • Group 2: patients receiving placebo. […] According to the statistical analysis plan of study AB07015 (version 1.0 dated 18 Oct. 2019), the overall assessable population was defined as: ‘all patients in full analysis set (FAS) with severe asthma already treated with oral corticosteroids at a minimal daily dose of greater than 5 mg prednisone or equivalent for at least 3 months prior to screening.’ Subgroup analyses were performed with cohort categorization of severe asthma patients according to eosinophil blood count at baseline. The primary efficacy endpoint was defined as the severe asthma exacerbation rate adjusted on the available person-time (time to end of treatment) on full exposure (main period+extension/weaning period). The rate of severe asthma exacerbations was analyzed by applying a Poisson regression (log-link function and Poisson distribution) model. Because eosinophilic inflammation is correlated with asthma severity, it was of interest to perform subgroup analyses according to blood eosinophil levels. Table 2 below presents the results regarding masitinib treatment effect with respect to placebo (rate ratio for asthma exacerbations requiring steroid therapy) in various blood eosinophil level-defined cohorts, and their complement cohorts (according to the primary efficacy analysis population). The rate of asthma exacerbations is analyzed using Poisson regression with treatment group (masitinib, placebo) as the primary variable (covariate) of interest.

[1] = masitinib 6 mg/kg/day oral, blood eosinophils equal to or higher than 150 cells/μL (M: 181)
[2] = masitinib 6 mg/kg/day oral, blood eosinophils equal to or lower than 300 cells/μL (M: 145)
[3] = masitinib 6 mg/kg/day oral, blood eosinophils higher than 300 cells/μL (M: 95)
[4] = masitinib 6 mg/kg/day oral, blood eosinophils lower than 150 cells/μL (M: 59)
[5] = masitinib 6 mg/kg/day oral, blood eosinophils ranging from 150 to 300 cells/μL (M: 86)
[6] = masitinib vs placebo, blood eosinophils equal to or higher than 150 cells/μL
[7] = masitinib vs placebo, blood eosinophils equal to or lower than 300 cells/μL
[8] = masitinib vs placebo, blood eosinophils higher than 300 cells/μL
[9] = masitinib vs placebo, blood eosinophils lower than 150 cells/μL
[10] = masitinib vs placebo, blood eosinophils ranging from 150 to 300 cells/μL
[11] = masitinib vs placebo, blood eosinophils equal to or higher than 300 cells/μL

With Cc1ccc(NC(=O)c2ccc(CN3CCN(C)CC3)cc2)cc1Nc1nc(-c2cccnc2)cs1 [Masitinib, 4-(4-methylpiperazin-1-ylmethyl)-N-[4-methyl-3-(4-pyridin-3ylthiazol-2-ylamino)phenyl]benzamide] as the compound, how does the “Yearly Exacerbation Rate” value (masitinib 6 mg/kg/day oral, blood eosinophils equal to or higher than 150 cells/μL) read?
Its value is 0.34 severe exacerbations per year.

What about the “Number of Severe Exacerbations” value [1] of the same compound?
Its value is 67.

And the “n: number of subjects who experienced severe exacerbation” value (shortened to “n: number”) [1]?
Its value is “(n = 39)”.

And the exacerbation rate (masitinib 6 mg/kg/day oral, blood eosinophils equal to or higher than 300 cells/μL (95 patients))?
The exacerbation rate was 0.29 severe exacerbations per year.

And the “Yearly Exacerbation Rate” value (masitinib 6 mg/kg/day oral, blood eosinophils equal to or lower than 300 cells/μL)?
Its value is 0.37.

And the “Number of Severe Exacerbations” value [2]?
Its value is 65.

And the “n: number” value [2]?
The value was “(n = 35)”.

What about the “Yearly Exacerbation Rate” value (masitinib 6 mg/kg/day oral, blood eosinophils higher than 300 cells/μL) of the same compound?
The value was 0.29.

And the “Number of Severe Exacerbations” value [3]?
The value was 29.

What about the “n: number” value [3] of the same compound?
Its value is “(n = 19)”.

What about the “Yearly Exacerbation Rate” value (masitinib 6 mg/kg/day oral, blood eosinophils lower than 150 cells/μL) of the same compound?
Its value is 0.36 severe exacerbations per year.

What about the “Number of Severe Exacerbations” value [4] of the same compound?
Its value is 27.

And the “n: number” value [4]?
Its value is “(n = 15)”.

What about the “Yearly Exacerbation Rate” value (masitinib 6 mg/kg/day oral, blood eosinophils ranging from 150 to 300 cells/μL) of the same compound?
The value was 0.38 severe exacerbations per year.

What about the “Number of Severe Exacerbations” value [5] of the same compound?
Its value is 38.

What about the “n: number” value [5] of the same compound?
The value was “(n = 20)”.

What about the “Rate ratio (Estimate) for asthma exacerbations” value (“Rate ratio (Estimate)” for short) [6] of the same compound?
The value was 0.66.

And the “Rate ratio (Estimate)” value [7]?
The value was 0.81.

What about the “Rate ratio (Estimate)” value [8] of the same compound?
The value was 0.59.

What about the “Rate ratio (Estimate)” value [9] of the same compound?
The value was 0.97.

And the “Rate ratio (Estimate)” value [10]?
Its value is 0.72.

What about the “Reduction in Severe Exacerbation” value [6] of the same compound?
The value was 34%.

What about the “Reduction in Severe Exacerbation” value (masitinib vs placebo, blood eosinophils equal to or higher than 150 cells/μL, listed as masitinib) of the same compound?
Its value is 33%.

What about the “rate ratio for asthma exacerbations” value [11] of the same compound?
The value was 0.59.

And the “reduction (improvement) in severe exacerbation” value [11]?
The value was 41%.

What about the “Reduction in Severe Exacerbation” value [7] of the same compound?
The value was 19%.

What about the “Reduction in Severe Exacerbation” value [8] of the same compound?
Its value is 41%.

And the “Reduction in Severe Exacerbation” value [9]?
The value was 3%.

What about the “difference in exacerbation rate versus placebo” value [9] of the same compound?
Its value is “no discernable difference”.

And the “Reduction in Severe Exacerbation” value (masitinib vs placebo, blood eosinophils lower than 150 cells/μL, listed as masitinib)?
Its value is 3%.

And the “Reduction in Severe Exacerbation” value [10]?
Its value is 28%.

And the “Reduction in Severe Exacerbation” value (masitinib vs placebo, blood eosinophils ranging from 150 to 300 cells/μL, listed as masitinib)?
Its value is 28%.
